Assays:
[1] = tested on: immobility of female NMRI mice; assay: Tail suspension test; assay type: in vivo; conditions: 30 min before test, 6 min suspension
Experimental: 1-(4-methoxyphenyl)-indole has been studied in the socalled tail suspension test as described by L. Steru et al., Prog. Neuro-Psychopharmacol. Biol. Psychiatry 11, 659-671 (1987). Female NMRI mice (20-25 g, 10 mice per dose) were suspended by the tail with adhesive tape for 6 min. The mice alternated between phases of activity (trying to escape) and immobility (despair). The duration of immobility was recorded manually. Saline, 1-(4-methoxyphenyl)-indole or desipramine were administered i.p. 30 min before the start of the test.

[2] = tested on: BKCa channel; assay: Single channel patch-clamp, inside-out patches of bovine aortic smooth muscle cells; assay type: cell-based; conditions: 20 μM
Experimental: (§1) All electrophysiological experiments were performed with patch-clamp technique (Hamill et al., Pflugers Arch. 391, 85-100 (1981). The ion composition of the internal solution was (in mM) 4 NaCl, 140 KCl, 1 CaCl2, 1 MgCl2, 2 EGTA, 10 HEPES and the external solution contained 140 NaCl, 4 Kcl, 2 CaCl2, 1 MgCl2 and 10 HEPES.

[3] = tested on: BKCa channel; assay: Single channel patch-clamp in pancreatic β-cells; assay type: cell-based
Experimental: as §1

[4] = tested on: social recognition memory of adult male Wistar rats; assay: Social recognition model; assay type: in vivo, rat
Experimental: In short, adult male Wistar rats (350 g) were housed individually in normal transparent plexiglas cages. After a habituation period of at least 24 hours a juvenile male Wistar rat (25-30 days old) was introduced in the cage in a 5 min period (first exposure). A second exposure of the same juvenile rat for another 5 min period was performed either 5 min later or 120 min later. In one case, another juvenile rat was introduced 120 min after an exposure of a juvenile rat. The adult rat was administered either saline or different doses of 1-(4-methoxyphenyl)-indole i.p. 15 min before the first exposure of the juvenile rat.
In both sessions (1st and 2nd exposure period) the total duration of investigatory behaviour consisting of sniffing, nosing and grooming performed by the adult rat was noted.
The adult rat (n=10-20) used generally 100-110 sec investigating the juvenile rat on the first exposure. […] The memory seems basically to be based on recognition of urine odour.

Row | SMILES | duration of immobility ([1]; doses between 1 and 30 mg/kg i.p.) | block of the BKCa channel [2] | block of the BKCa channel [3] | duration of immobility ([1]; doses between 10 and 100 mg/kg i.p.) | investigatory behaviour on the second exposure with a new (unknown) juvenile rat ([4]; 30 mg/kg i.p. 15 min before first exposure, new juvenile rat) | investigatory behaviour on the first exposure ([4]; 7.5-30 mg/kg i.p. 15 min before first exposure) | investigatory behaviour on the second exposure of the same juvenile rat ([4]; 7.5-30 mg/kg i.p., second exposure 120 min later, same juvenile rat)
1 | CNCCCN1c2ccccc2CCc2ccccc21 [Desipramine, reference compound] | reduced the immobility dose-dependently | – | – | – | – | – | –
2 | COc1ccc(-n2ccc3ccccc32)cc1 [1-(4-methoxyphenyl)-indole] | – | potently at 20 μM blocked the BKCa channel | potently blocked the BKCa channel | inhibited the immobility dose-dependently | normal investigatory behaviour was seen | did not interfere with the adult rats investigatory behaviour | significant decrease in investigatory behaviour

From patent US5158969A, “Indole derivatives as potassium channel blockers” (NeuroSearch A/S, priority 1991, dated 1992)
